Where two headings read alike, the source gives them in different places.
Experiments:
[1] = target: USP1/UAF1 enzyme (Homo sapiens, UniProt O94782); assay: USP1/UAF1 deubiquitination assay (ubiquitin-rhodamine 110 substrate); type: biochemical; details: read-out: USP1 IC50 (Ub-Rho)
How it was run: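 0.05 nM USP1/UAF1 was preincubated 10 min with compounds (dose response from 10 μM) in 50 mM Tris-HCl pH 7.8, 0.5 mM EDTA, 0.01% BSA, 1 mM DTT, 0.01% Tween-20. 150 nM ubiquitin-rhodamine 110 started the reaction, read kinetically 30 min at Ex480/Em540; IC50 by four-parameter fit versus no-enzyme and DMSO controls.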

[2] = tested on: Ub-PCNA levels in the nucleus of ES2 cells (USP1 activity); assay: ES2 Ub-PCNA immunofluorescence (IF) assay; type: cell-based; details: Homo sapiens, ES-2; ES2 cells, 3 hours, Ub-PCNA immunofluorescence; read-out: USP1 IC50 (Ub-PCNA)
How it was run: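 Cells plated overnight, then compound-treated for 3 h at 37° C (0.3% DMSO final), methanol-fixed and stained with anti-Ub-PCNA plus DAPI. Per-nucleus Ub-PCNA intensity imaged; cells above the 95% cutoff of untreated wells counted as positive, and percent positive cells used to derive AC50.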

[3] = ADME solubility determination in PBS at pH 2.0 and pH 7.4; type: physicochemical; details: phosphate buffered saline, 25 °C, thermodynamic from solid
How it was run: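 Dried 10 mM DMSO stock residues taken up in PBS pH 7.4 or pH 2.0, shaken 24 h at 25° C. After centrifugation, supernatant quantified by LC-MS/MS against a standard of known concentration, with a dilution factor applied.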

[4] = Liver microsomal metabolic stability, rat liver microsomes (RLM); details: rat, liver microsomes, t1/2 (min) in RLM, 1 μM compound, 1 mg/mL microsomes, NADPH
[5] = Liver microsomal metabolic stability, human liver microsomes (HLM); details: human, liver microsomes
[6] = pH 2, aqueous buffer, PBS pH 2.0, 25° C., read-out: Solubility at pH 2.0
[7] = pH 7.4, aqueous buffer, PBS pH 7.4, 25° C., read-out: Solubility at pH 7.4

USP1/UAF1 enzyme, sequence (O94782 whole entry): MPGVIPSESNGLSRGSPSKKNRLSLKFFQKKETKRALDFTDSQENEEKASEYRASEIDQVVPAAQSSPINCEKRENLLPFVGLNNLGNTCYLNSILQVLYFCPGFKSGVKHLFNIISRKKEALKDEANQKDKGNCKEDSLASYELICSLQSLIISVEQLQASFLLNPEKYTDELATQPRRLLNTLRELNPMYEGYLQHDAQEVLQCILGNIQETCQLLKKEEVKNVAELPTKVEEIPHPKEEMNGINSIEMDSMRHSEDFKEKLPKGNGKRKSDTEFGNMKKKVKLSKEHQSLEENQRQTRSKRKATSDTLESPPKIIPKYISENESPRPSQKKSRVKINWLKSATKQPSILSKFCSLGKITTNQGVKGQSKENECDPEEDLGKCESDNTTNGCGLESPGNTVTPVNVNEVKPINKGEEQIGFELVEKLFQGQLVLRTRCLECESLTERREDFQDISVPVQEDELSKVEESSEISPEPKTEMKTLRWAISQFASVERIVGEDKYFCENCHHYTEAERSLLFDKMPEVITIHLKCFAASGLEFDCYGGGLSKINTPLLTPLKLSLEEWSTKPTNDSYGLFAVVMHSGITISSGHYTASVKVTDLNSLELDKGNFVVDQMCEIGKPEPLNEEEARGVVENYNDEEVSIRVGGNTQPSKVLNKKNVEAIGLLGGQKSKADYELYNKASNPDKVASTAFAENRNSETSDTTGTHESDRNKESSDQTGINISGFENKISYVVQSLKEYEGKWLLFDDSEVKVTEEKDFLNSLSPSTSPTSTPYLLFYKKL
USP1/UAF1 enzyme, sequence (Q8TAF3 whole entry partner): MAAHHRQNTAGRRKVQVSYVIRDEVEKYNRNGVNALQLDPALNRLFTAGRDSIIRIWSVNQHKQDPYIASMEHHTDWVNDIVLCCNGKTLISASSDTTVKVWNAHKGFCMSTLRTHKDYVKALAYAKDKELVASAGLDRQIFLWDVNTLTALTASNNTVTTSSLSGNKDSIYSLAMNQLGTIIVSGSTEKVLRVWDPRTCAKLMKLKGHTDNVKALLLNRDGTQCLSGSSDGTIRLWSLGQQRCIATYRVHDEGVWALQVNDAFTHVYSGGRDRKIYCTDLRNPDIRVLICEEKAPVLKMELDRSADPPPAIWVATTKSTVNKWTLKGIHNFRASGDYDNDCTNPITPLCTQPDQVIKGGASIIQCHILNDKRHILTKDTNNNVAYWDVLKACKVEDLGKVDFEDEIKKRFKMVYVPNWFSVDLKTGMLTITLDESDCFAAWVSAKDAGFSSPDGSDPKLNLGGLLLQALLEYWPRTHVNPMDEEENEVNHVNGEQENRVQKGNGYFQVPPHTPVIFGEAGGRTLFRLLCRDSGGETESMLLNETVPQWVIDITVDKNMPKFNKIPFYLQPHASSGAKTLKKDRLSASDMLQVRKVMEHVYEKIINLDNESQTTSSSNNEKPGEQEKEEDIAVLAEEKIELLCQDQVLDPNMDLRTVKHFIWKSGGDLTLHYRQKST

| SMILES | IC50 [1] | IC50 [2] | solubility at 24 h [3, 6] | solubility at 24 h [3, 7] | half-life at 1 μM [4] | half-life at 1 μM [5] |
| --- | --- | --- | --- | --- | --- | --- |
| CCn1cc(C(F)(F)F)nc1-c1ccc(CC2c3cc(-c4c(OC)ncnc4C4CC4)nn3CCN2C)cc1 (stereo not drawn) [Example 362, 2-(4-cyclopropyl-6-methoxypyrimidin-5-yl)-4-(4-(1-ethyl-4-(trifluoromethyl)-1H-imidazol-2-yl)benzyl)-5-methyl-4,5,6,7-tetrahydropyrazolo[1,5-a]pyrazine] | < 100 nM | 100 to 500 nM | ≥ 10 µM | ≥ 10 µM | < 25 min | < 25 min |
| CCn1cc(C(F)(F)F)nc1-c1ccc(CN2C(=O)CCn3nc(-c4c(OC(F)F)ncnc4C4CC4)nc32)cc1 [Example 364, 2-(4-cyclopropyl-6-(difluoromethoxy)pyrimidin-5-yl)-4-(4-(1-ethyl-4-(trifluoromethyl)-1H-imidazol-2-yl)benzyl)-6,7-dihydro-[1,2,4]triazolo[1,5-α]pyrimidin-5(4H)-one] | < 100 nM | < 100 nM | < 10 µM | < 10 µM | > 25 min | > 25 min |
| COc1c(CN2C(=O)CCn3nc(-c4c(OC(F)F)ncnc4C4CC4)nc32)ccc(-c2nc(C(F)(F)F)cn2C(C)C)c1F [Example 365, 2-(4-cyclopropyl-6-(difluoromethoxy)pyrimidin-5-yl)-4-(3-fluoro-4-(1-isopropyl-4-(trifluoromethyl)-1H-imidazol-2-yl)-2-methoxybenzyl)-6,7-dihydro-[1,2,4]triazolo[1,5-a]pyrimidin-5(4H)-one] | < 100 nM | < 100 nM | < 10 µM | < 10 µM | > 25 min | > 25 min |
| CCn1cc(C(F)(F)F)nc1-c1ccc(CN2C(=O)CCn3nc(-c4c(OC(F)F)ncnc4C4CC4)nc32)cc1F [Example 370, 2-(4-cyclopropyl-6-(difluoromethoxy)pyrimidin-5-yl)-4-(4-(1-ethyl-4-(trifluoromethyl)-1H-imidazol-2-yl)-3-fluorobenzyl)-6,7-dihydro-[1,2,4]triazolo[1,5-a]pyrimidin-5(4H)-one] | < 100 nM | < 100 nM | < 10 µM | < 10 µM | > 25 min | > 25 min |

More lines, now with the values ahead:

| IC50 [1] | IC50 [2] | solubility at 24 h [3, 6] | solubility at 24 h [3, 7] | half-life at 1 μM [4] | half-life at 1 μM [5] | SMILES |
| --- | --- | --- | --- | --- | --- | --- |
| < 100 nM | < 100 nM | < 10 µM | < 10 µM | < 25 min | > 25 min | CCn1cc(C(F)(F)F)nc1-c1ccc(OC2CCCCn3nc(-c4c(Cl)cnn4C(C)C)cc32)cc1 (stereo not drawn) [Example 358, 2-(4-chloro-1-isopropyl-1H-pyrazol-5-yl)-4-(4-(1-ethyl-4-(trifluoromethyl)-1H-imidazol-2-yl)phenoxy)-5,6,7,8-tetrahydro-4H-pyrazolo[1,5-α]azepine] |
| < 100 nM | < 100 nM | ≥ 10 µM | < 10 µM | < 25 min | < 25 min | CCn1cc(C(F)(F)F)nc1-c1ccc(CC2c3cc(-c4c(Cl)cnn4C(C)C)nn3CCN2C)cc1 (stereo not drawn) [Example 360, 2-(4-chloro-1-isopropyl-1H-pyrazol-5-yl)-4-(4-(1-ethyl-4-(trifluoromethyl)-1H-imidazol-2-yl)benzyl)-5-methyl-4,5,6,7-tetrahydropyrazolo[1,5-α]pyrazine] |
| < 100 nM | < 100 nM | < 10 µM | < 10 µM | < 25 min | < 25 min | CC(C)n1cc(C(F)(F)F)nc1-c1ccc(C(N2CCCn3nc(-c4c(Cl)cnn4C(C)C)cc32)C(F)(F)F)cc1F (stereo not drawn) [Example 371, 2-(4-chloro-1-isopropyl-1H-pyrazol-5-yl)-4-(2,2,2-trifluoro-1-(3-fluoro-4-(1-isopropyl-4-(trifluoromethyl)-1H-imidazol-2-yl)phenyl)ethyl)-4,5,6,7-tetrahydropyrazolo[1,5-α]pyrimidine] |

Reference: patent US20230219965A1 (KSQ Therapeutics, Inc., priority 2020, published 2023)
